From patent US8945856B2, “Affinity-based detection of biological targets” (priority 2005, dated 2015)

Columns and labels:
botulinum toxoid A = botulinum toxoid A (Clostridium botulinum, UniProt P0DPI0); assay type: binding
E. coli cells = details: total analysis time 2.5 hours; cited from earlier work
Salmonella = assay type: binding
[1] = tested on: E. coli lipopolysaccharide (LPS); assay: Fiber optic biosensor 5-minute competitive assay with polymyxin B as capture molecule (James et al.); assay type: binding; details: assuming LPS monomer 4-20 kDa and 1.2×10^6 LPS molecules per cell
[2] = tested on: E. coli lipopolysaccharide (LPS); details: 5-minute competitive assays; cited from earlier work
[3] = tested on: heat-killed E. coli O157:H7 cells; assay: Array Biosensor direct assay: Cy5-labeled cells binding to immobilized magainin; details: magainin I covalently (directly) immobilized via GMBS
[4] = tested on: heat-killed S. typhimurium cells; assay: as above
Campylobacter sp. = assay: Array Biosensor binding to directly immobilized magainin; details: analogous conditions
Bacillus sp. = assay: as above; details: analogous conditions
E. coli = assay type: binding

Sequence of botulinum toxoid A (P0DPI0 whole entry, looked up): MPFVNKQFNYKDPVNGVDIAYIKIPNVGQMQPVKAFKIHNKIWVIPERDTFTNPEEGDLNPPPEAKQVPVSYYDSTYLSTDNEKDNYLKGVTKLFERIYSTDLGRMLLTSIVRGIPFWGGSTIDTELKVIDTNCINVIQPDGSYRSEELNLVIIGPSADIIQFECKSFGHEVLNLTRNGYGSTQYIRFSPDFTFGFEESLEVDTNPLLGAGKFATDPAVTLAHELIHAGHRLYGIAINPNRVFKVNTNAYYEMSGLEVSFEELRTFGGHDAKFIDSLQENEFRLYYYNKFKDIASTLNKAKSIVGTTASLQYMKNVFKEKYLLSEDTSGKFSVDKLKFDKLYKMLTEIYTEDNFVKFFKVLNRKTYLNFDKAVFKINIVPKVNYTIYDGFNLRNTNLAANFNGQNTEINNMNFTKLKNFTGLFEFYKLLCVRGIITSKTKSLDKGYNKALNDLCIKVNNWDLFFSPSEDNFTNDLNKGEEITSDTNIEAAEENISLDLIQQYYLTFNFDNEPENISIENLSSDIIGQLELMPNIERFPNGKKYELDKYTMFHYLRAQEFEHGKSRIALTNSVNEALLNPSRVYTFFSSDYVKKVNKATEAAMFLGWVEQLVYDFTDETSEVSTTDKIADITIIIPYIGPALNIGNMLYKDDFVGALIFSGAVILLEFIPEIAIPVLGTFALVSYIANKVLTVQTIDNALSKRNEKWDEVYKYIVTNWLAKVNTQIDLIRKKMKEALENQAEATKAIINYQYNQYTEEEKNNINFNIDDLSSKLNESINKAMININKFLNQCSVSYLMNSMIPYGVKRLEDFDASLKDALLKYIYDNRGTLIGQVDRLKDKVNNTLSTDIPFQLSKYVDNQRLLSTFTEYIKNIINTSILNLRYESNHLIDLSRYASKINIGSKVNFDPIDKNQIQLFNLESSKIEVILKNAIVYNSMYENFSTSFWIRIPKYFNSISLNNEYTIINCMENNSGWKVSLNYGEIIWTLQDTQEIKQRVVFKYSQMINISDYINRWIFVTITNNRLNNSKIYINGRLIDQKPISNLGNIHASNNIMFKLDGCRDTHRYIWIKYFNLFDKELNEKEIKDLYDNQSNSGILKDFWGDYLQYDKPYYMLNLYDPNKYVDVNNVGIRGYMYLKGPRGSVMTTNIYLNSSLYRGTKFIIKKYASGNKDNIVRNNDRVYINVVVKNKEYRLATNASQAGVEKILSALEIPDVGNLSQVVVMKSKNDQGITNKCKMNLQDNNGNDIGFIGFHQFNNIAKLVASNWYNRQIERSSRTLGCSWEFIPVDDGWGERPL

**Q.** Which “Binding of botulinum toxoid to immobilized capture species” value (“Binding of botulinum toxoid” below) (botulinum toxoid A) does the source give for “Cecropin A (KWKLFKKIEKVGQNIRDGIIKAGPAVAVVGQATQIAK)” here?
**A.** Its value is “bound”.

**Q.** And the “Estimated limit of detection compared with antibody-based assays” value (botulinum toxoid A)?
**A.** The value was “significantly lower”.

**Q.** What about the “Preferential binding, toxoid A versus toxoid B” value (botulinum toxoid A) of the same substance?
**A.** Its value is “bound preferentially by toxoid A”.

**Q.** For “Cecropin P1 (SWLSKTAKKLENSAKKRISEGIAIAIQGGPR; Cecropin-P1; UniProt P14661 14-44, looked up)”, which “Detection limit for E. coli” value (E. coli cells) is on record?
**A.** Its value is ~10^7 cfu/mL.

**Q.** For Polymyxin B, which “Binding of botulinum toxoid” value (botulinum toxoid A) is on record?
**A.** Its value is “less strongly”.

**Q.** And the “LOD for Salmonella” value (Salmonella)?
**A.** Its value is 10^5 cfu/ml.

**Q.** What about the “Detection limit calculated as number of bacteria per mL” value [1] of the same substance?
**A.** The value was 3×10^5-1.3×10^6 cells/mL.

**Q.** And the “Detection limit for E. coli LPS” value [2]?
**A.** Its value is “approx. 10 ng/mL”.

**Q.** Which “Detection limit for labelled E. coli” value [3] does the source give for “Magainin I (GIGKFLHSAGKFGKAFVGEIMKS; listed as Xenopus laevis)” here?
**A.** The value was 1.6×10^5 cell/mL.

**Q.** And the “Detection limit for labelled S. typhimurium” value ([4]; magainin I covalently (directly) immobilized via GMBS, Cy5-labeled heat-killed cells)?
**A.** The value was 6.5×10^4 cell/mL.

**Q.** What about the “Concentration in solution during immobilization step at which bacterial binding saturated” value ([4]; patterning solution, target bacteria) of the same substance?
**A.** Its value is 0.4 mM.

**Q.** What about the “Binding of botulinum toxoid” value (botulinum toxoid A) of the same substance?
**A.** Its value is “not”.

**Q.** And the “Binding of Campylobacter sp.” value (Campylobacter sp.)?
**A.** The value was “only trace binding”.

**Q.** And the “Binding of Bacillus sp.” value (Bacillus sp.)?
**A.** Its value is “only trace binding”.

**Q.** With Bactenecin as the substance, how does the “LOD for E. coli” value (E. coli) read?
**A.** The value was 10^2-10^3 cfu/ml.
